Data from the RepoRT retention time repository (doi:10.1016/j.chroma.2014.05.003).

Assay: RP, Agilent ZORBAX Eclipse Plus C18, 50 × 4.6 mm, 1.8 µm, 0.5 mL/min, estimated dead time 1.1 min; A: water + 0.1% formic acid; B: acetonitrile + 0.1% formic acid; gradient (min/%B) 0/10 3/10 25/100 28/100
Settings: stereoisomer not certain

Structure (SMILES)	LC retention time [min]
COP(=S)(OC)Oc1ccc(Sc2ccc(OP(=S)(OC)OC)cc2)cc1	21.2
COCc1cnc(C2=NC(C)(C(C)C)C(=O)N2)c(C(=O)O)c1 (centres undefined)	8.04
CCCCCc1cc(O)c2c(c1)OC(C)(C)C1CCC(C)=CC21 (centres undefined)	23.6
CCSCc1ccccc1OC(=O)NC	13.1
CC(C)(C)NCC(O)c1ccc(O)c(CO)c1 (centres undefined)	1.63
CC(C(=O)O)c1cccc(C(=O)c2ccccc2)c1 (centres undefined)	13.7
CNC(=O)Oc1cccc(C)c1	11
Nc1ncn[nH]1	1.36
CON=C(C(=O)OC)c1ccccc1COc1ccccc1C	18
CCCN(CC)CC1COC2(CCC(C(C)(C)C)CC2)O1 (centres undefined)	12.5
CC(C)c1ccc(NC(=O)N(C)C)cc1	12.9
CCOP(=O)(SC(C)CC)N1CCSC1=O (centres undefined)	12.7
O=NN1CCOCC1	2.21
CCC1OC(=O)C(C)C(OC2CC(C)(OC)C(O)C(C)O2)C(C)C(OC2OC(C)CC(N(C)C)C2O)C(C)(O)CC(C)C(=NOCOCCOC)C(C)C(O)C1(C)O (centres undefined)	11.3
C=C(C)C1Cc2c(ccc3c2OC2COc4cc(OC)c(OC)cc4C2C3=O)O1 (centres undefined)	17.2
COP(=S)(OC)Oc1ccc([N+](=O)[O-])cc1	16.3
CCOC(=O)CCN(SN(C)C(=O)Oc1cccc2c1OC(C)(C)C2)C(C)C	20.8
Cc1onc(-c2ccccc2)c1C(=O)NC1C(=O)N2C1SC(C)(C)C2C(=O)O (centres undefined)	12.8
CN(C)C(=O)Nc1cccc(OC(=O)NC(C)(C)C)c1	11.6
Cc1cc(=O)n(-c2ccccc2)n1C	6.97
CCCCCCCCCCCC[N+](C)(C)Cc1ccccc1	16.2

Structure (SMILES)	LC retention time [min]
O=c1oc2ccccc2c(O)c1C1CC(c2ccc(-c3ccccc3)cc2)Cc2ccccc21 (centres undefined)	21.7
CCN(CC)C(=O)C(C)Oc1cccc2ccccc12 (centres undefined)	16.3
Cc1ccnc(NS(=O)(=O)c2ccc(N)cc2)n1	5.73
CNC(=O)CSP(=S)(OC)OC	9
CCOC(=O)N(C)C(=O)CSP(=S)(OCC)OCC	17.8
CNC(C)Cc1ccc2c(c1)OCO2 (centres undefined)	5.39
COP(=S)(OC)Oc1ccc(SC)c(C)c1	18.5
COC(=O)NN=Cc1c[n+]([O-])c2ccccc2[n+]1[O-]	6.32
CC(N)Cc1ccccc1 (centres undefined)	3.82
CC(=O)Nc1ccc(O)cc1	2.66
CCOP(=S)(OCC)SCn1nnc2ccccc2c1=O	17.4
COC(=O)c1ccccc1CS(=O)(=O)NC(=O)Nc1nc(OC)cc(OC)n1	14.2
CC12CCC3c4ccc(O)cc4CCC3C1CC(O)C2O (centres undefined)	9.36
CCSC(=O)N(CC)C1CCCCC1	19.8
O=NN1CCCC1	2.66
CNC(=O)Oc1cccc2c1OC(C)(C)C2	12.1
CCOC(=O)C1CC(=O)C(=C(O)C2CC2)C(=O)C1 (centres undefined)	14.2
COC(=O)C=C(C)OP(=O)(OC)OC	9.1
COC1C(OC(C)=O)CC(=O)OC(C)CC=CC=CC(O)C(C)CC(CC=O)C1OC1OC(C)C(OC2CC(C)(O)C(OC(=O)CC(C)C)C(C)O2)C(N(C)C)C1O (centres undefined)	12
CNC(=C[N+](=O)[O-])NCCSCc1ccc(CN(C)C)o1	2.03
CCCOC(=O)NCCCN(C)C	2.3

Structure (SMILES)	LC retention time [min]
CNC(=O)ON=CC(C)(C)S(C)(=O)=O	4.81
CCOC(=O)NCCOc1ccc(Oc2ccccc2)cc1	17
Cc1nnc(-c2ccccc2)c(=O)n1N	7.57
COP(=O)(NC(C)=O)SC (centres undefined)	1.86
Oc1ccccc1-c1ccccc1	16.3
C#CC1(O)CCC2C3CCc4cc(O)ccc4C3CCC21C (centres undefined)	14.3
CCNc1nc(NCC)nc(SC)n1	8.74
Cc1cc(C)nc(Nc2ccccc2)n1	11.6
CCOc1ccc2c3c1OC1C(O)C=CC4C(C2)N(C)CCC341 (centres undefined)	5.83
CCCN(CCC)c1c([N+](=O)[O-])cc(S(N)(=O)=O)cc1[N+](=O)[O-]	17
COP(N)(=O)SC (centres undefined)	1.61
COc1cc(NS(=O)(=O)c2ccc(N)cc2)nc(OC)n1	10.4
Nc1ccc(S(N)(=O)=O)cc1	1.82
Cn1cnc2c1c(=O)[nH]c(=O)n2C	1.96
CCCSc1ccc2nc(NC(=O)OC)[nH]c2c1	10.5
COC(=O)Nc1nc2ccc(C(=O)c3ccccc3)cc2[nH]1	10.7
CCCCC1C(=O)N(c2ccccc2)N(c2ccccc2)C1=O	17.2
CC(C)(C)NCC(O)COc1nsnc1N1CCOCC1 (centres undefined)	6.87
CCC(C)C1OC2(C=CC1C)CC1CC(CC=C(C)C(OC3CC(OC)C(OC4CC(OC)C(NC(C)=O)C(C)O4)C(C)O3)C(C)C=CC=C3COC4C(O)C(C)=CC(C(=O)O1)C34O)O2 (centres undefined)	21.2
CCC(C)c1ccccc1OC(=O)NC (centres undefined)	15
CCC(C)C(=O)OC1CCC=C2C=CC(C)C(CCC3CC(O)CC(=O)O3)C21 (centres undefined)	15.7

Structure (SMILES)	LC retention time [min]
CNC(=O)N(C)c1nnc(C(C)(C)C)s1	9.87
CS(=O)(=O)Nc1nc2cc(-c3ccc([N+](=O)[O-])cc3)c([N+](=O)[O-])cc2[nH]c1=O	11.5
CNC(=O)ON=C(C)C(C)S(C)(=O)=O (centres undefined)	4.36
CCOP(=S)(Oc1ccc([N+](=O)[O-])cc1)c1ccccc1 (centres undefined)	20
COC(=O)Nc1nc2ccc(Sc3ccccc3)cc2[nH]1	12.6
CC1(C)SC2C(NC(=O)C(N)c3ccccc3)C(=O)N2C1C(=O)O (centres undefined)	7.93
CCOc1ccc(NC(C)=O)cc1	9.38
CCOP(=S)(OCC)Oc1ccc(S(C)=O)cc1 (centres undefined)	13.5
CCOP(=O)(Sc1ccccc1)Sc1ccccc1	17.6
c1ccc2[nH]c(-c3cscn3)nc2c1	4.54
CCOC(=O)CC(SP(=S)(OC)OC)C(=O)OCC (centres undefined)	17
O=C1CCc2cccc3c2N1CC3	10.2
CC(C)c1cc(Oc2ccccc2)cc(C(C)C)c1NC(=S)NC(C)(C)C	22.3
CCC1CCCC(OC2CCC(N(C)C)C(C)O2)C(C)C(=O)C2=CC3C(C=CC4CC(OC5OC(C)C(OC)C(OC)C5OC)CC43)C2CC(=O)O1 (centres undefined)	14.9
CCNc1nc(NC(C)(C)C)nc(SC)n1	18.3
NC(=O)N1c2ccccc2C=Cc2ccccc21	11.2
COc1cc(Cc2cnc(N)nc2N)cc(OC)c1OC	5.6
CC12CCC(O)CC1CCC1C2CC(O)C2(C)C(C3=CC(=O)OC3)CCC12O (centres undefined)	8.14
Cc1ccc(NS(=O)(=O)N(C)C)cc1	12.9
CC(=O)CC(c1ccccc1)c1c(O)c2ccccc2oc1=O (centres undefined)	14.9
Nc1ccc(S(=O)(=O)Nc2ccccn2)cc1	5.27
